Laboratory results as given in publication PMC6762200, “Discovery of novel West Nile Virus protease inhibitor based on isobenzonafuranone and triazolic derivatives of eugenol and indan-1,3-dione scaffolds” (PLoS ONE, 2019).

Assays:
[1] = biological target: T1, WNV NS2B-NS3 protease (NS2B-NS3pro) (West Nile virus strain NY-99, UniProt Q9Q6P4); assay: fluorogenic protease assay, pERTKR-AMC, four-parameter fit, […] concentrations; assay type: biochemical
T1 construct: gene GP1; cut from WNV genome polyprotein; with Serine protease subunit NS2B (cofactor region)
T1 sequence (Q9Q6P4 1423-1469): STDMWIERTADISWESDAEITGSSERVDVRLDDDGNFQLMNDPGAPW
T1 sequence (Q9Q6P4 1506-1689): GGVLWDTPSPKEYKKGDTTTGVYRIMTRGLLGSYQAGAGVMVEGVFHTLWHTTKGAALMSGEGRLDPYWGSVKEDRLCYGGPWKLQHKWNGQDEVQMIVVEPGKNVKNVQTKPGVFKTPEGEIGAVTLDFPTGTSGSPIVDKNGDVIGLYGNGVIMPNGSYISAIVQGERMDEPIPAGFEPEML

[2] = biological target: T1, WNV NS2B-NS3 protease (NS2B-NS3pro); assay: fluorogenic protease assay, pERTKR-AMC, nonlinear fit in competitive mode; assay type: biochemical

C=CCc1ccc(OCc2cn(Cc3ccccc3Br)nn2)c(OC)c1 [compound 35, 4-((4-allyl-2-methoxyphenoxy)methyl)-1-(2-bromobenzyl)-1H-1,2,3-triazole]
IC50 [1]: 6.86 µM
Ki [2]: 3.06 µM
